From ChEMBL document CHEMBL3632590, “Development of Safe and Effective Botanical Dietary Supplements” (J Med Chem, 2015)

Columns and labels:
[1] = target: Cytochrome P450 2D6 (Homo sapiens, UniProt P10635); assay: Competitive inhibition of CYP2D6 (unknown origin) using dextromethorphan substrate; format: ADME
[2] = Terminal half life in orally dosed human by LC-MS/MS method; format: ADME, organism-based; conditions: in vivo, po, read-out: beta t1/2
[3] = Oral bioavailability in human; format: ADME, organism-based; conditions: in vivo
[4] = Terminal half life in human at 60 mg, po by LC-MS/MS method; format: ADME, organism-based; conditions: in vivo, read-out: beta t1/2 (converted)

Chain of Cytochrome P450 2D6 (P10635 whole entry): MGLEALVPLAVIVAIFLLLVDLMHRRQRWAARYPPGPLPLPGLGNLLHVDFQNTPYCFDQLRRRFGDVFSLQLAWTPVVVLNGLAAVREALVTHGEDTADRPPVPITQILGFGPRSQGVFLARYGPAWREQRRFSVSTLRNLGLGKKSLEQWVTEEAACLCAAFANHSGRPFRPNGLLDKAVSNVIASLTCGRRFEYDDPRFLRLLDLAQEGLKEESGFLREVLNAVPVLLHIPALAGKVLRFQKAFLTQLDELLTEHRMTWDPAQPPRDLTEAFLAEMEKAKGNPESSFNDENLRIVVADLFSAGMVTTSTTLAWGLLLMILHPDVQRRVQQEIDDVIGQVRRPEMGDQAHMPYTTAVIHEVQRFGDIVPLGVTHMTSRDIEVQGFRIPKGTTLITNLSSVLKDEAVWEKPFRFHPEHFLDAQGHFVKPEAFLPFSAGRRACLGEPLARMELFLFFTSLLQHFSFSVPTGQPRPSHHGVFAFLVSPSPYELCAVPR

COc1ccc2c(c1OC)CN(C)CCc1cc3c(cc1C(=O)C2)OCO3 [ALLOCRYPTOPINE]
Ki [1]: 122 nM

COc1cc([C@H]2Oc3cc([C@H]4Oc5cc(O)cc(O)c5C(=O)[C@@H]4O)ccc3O[C@@H]2CO)ccc1O [SILYBIN A]
half-life [2]: < 2 h | bioavailability [3]: < 0.5%

COc1cc([C@@H]2Oc3cc([C@H]4Oc5cc(O)cc(O)c5C(=O)[C@@H]4O)ccc3O[C@H]2CO)ccc1O [SILYBIN B]
half-life [2]: < 2 h | bioavailability [3]: < 0.5%

CC(C)=CCc1c(O)cc(O)c2c1OC(c1ccc(O)cc1)CC2=O (configuration not stated) [SOPHORAFLAVANONE B]
half-life [4]: 20 h

COc1cc(O)c(CC=C(C)C)c(O)c1C(=O)/C=C/c1ccc(O)cc1 [XANTHOHUMOL]
half-life [4]: 20 h
